Measurements as given in patent US20250262197A1, “COMPOUNDS AND METHODS FOR TREATING CHEMOTHERAPY-INDUCED PAIN” (priority 2024, published 2025).
Where two headings read alike, the source gives them in different places.

Tests used:
[1] = system: oxaliplatin-induced peripheral neuropathy (cold allodynia); test: Repeated daily oral administration in rat model of oxaliplatin-induced peripheral neuropathy, cold allodynia, paw immersion test; format: in vivo, male Sprague-Dawley rats
Experimental: Cold allodynia is measured using the cryothermostat. See Singh, V. P., Kulkarni, S. K., “Effect of licofelone against mechanical hyperalgesia and cold allodynia in the rat model of incisional pain” Pharmacological Reports 2005(57):380-384.
Cold allodynia was measured using the paw immersion test. See Singh, supra. In this test, the latency of hindpaw withdrawal was measured after immersion of the hindpaw in the cryothermostat with a temperature fixed at 10° C. (±0.5° C.).
Duloxetine was used as a reference to validate the assay.
On D-3, latency of hindpaw withdrawal was measured on both paws using the cryothermostat to obtain a pre-induction and pre-treatment baseline. […] The first administration of vehicle and Compound A (groups 1 to 4) was done on D-3, then vehicle and Compound A were daily orally administered until D18 (n=22 repeated treatments). […] On the testing days (D4, D11, and D18), latency of hindpaw withdrawal was measured on both paws using the cryothermostat to obtain a baseline. Duloxetine was then orally administered at the same time as vehicle and Compound A at time T0. Sixty minutes later, the latency of hindpaw withdrawal was measured.
Vehicle (10% Ethanol/40% PEG 400/15% Tween 80 in sterile water) and Compound A were orally administered at 3 ml/kg. Duloxetine was orally administered at 10 ml/kg. Dosing and testing were performed in a random order by a blinded experimenter with the exception of sham animals and the duloxetine-treated group. Doses are expressed in terms of free active substance.
On D-3, the latency of hindpaw withdrawal was measured on both paws using the cryothermostat to obtain preinduction and pretreatment baselines.
The first administration of vehicle and Compound A (group 1 to 4) was done on D-3 then vehicle and Compound A were daily orally administered until D18 (n=22 repeated treatments).
On the testing days (D4, D11 and D18), latency of hindpaw withdrawal was measured on both paws using the cryothermostat (baseline) then duloxetine was orally administered at the same time than vehicle and Compound A (T0) and 60 minutes later, the latency of hindpaw withdrawal was measured.
Results were expressed as: 1) the paw withdrawal latency (mean±s.e.m.) in seconds for each group, calculated from individual paw withdrawal latency; and 2) the percentage of variation of the paw withdrawal latency calculated from the mean value of the vehicle-treated group. To determine a statistical effect of the test substance and the reference substance, data were analyzed by a non-parametrical test. The significance level was p<0.05.

[2] = system: oxaliplatin-induced peripheral neuropathy (cold allodynia); test: Single oral administration in rat model of oxaliplatin-induced peripheral neuropathy, cold allodynia, paw immersion test; format: in vivo, male Sprague-Dawley rats; details: for percentage of variation of the paw withdrawal latency as compared to the vehicle-treated group: p<0.05
Experimental: Cold allodynia is measured using the cryothermostat. See […]., “Effect of licofelone against mechanical hyperalgesia and cold allodynia in the rat model of incisional pain” Pharmacological Reports 2005(57):380-384. […] Cheng, X., et al., “Herbal Medicine AC591 Prevents oxaliplatin-Induced Peripheral Neuropathy in Animal Model and Cancer Patients” Frontiers in Pharmacology, 2017(8):344. This model is useful to evaluate the analgesic effects of new compounds on oxaliplatin-induced chronic painful symptoms. Cold allodynia was measured using the paw immersion test. See Singh, supra. In this test, the latency of hindpaw withdrawal was measured after immersion of the hindpaw in the cryothermostat with a temperature fixed at 10° C. (±0.5° C.). […] On day zero (D0), latency of hindpaw withdrawal was measured on both paws using the cryothermostat (Baseline pre-induction). […] Sixty minutes later, the latency of hindpaw withdrawal was measured on both paws using the cryothermostat. […] Doses are expressed in terms of free active substance. […] On D0, latency of hindpaw withdrawal was measured on both paws using the cryothermostat to obtain a preinduction baseline preinduction. […] Sixty minutes later, the latency of hindpaw withdrawal was measured on both paws using the cryothermostat. […] Rats were sacrificed at the end of the experiment by CO2 inhalation pending subsequent removal by a certified company. Results were expressed as: 1) the paw withdrawal latency (mean±s.e.m.) in seconds for each group, calculated from individual paw withdrawal latency; and 2) the percentage of variation of the paw withdrawal latency calculated from the mean value of the vehicle-treated group. To determine a statistical effect of the test substance and the reference substance, data were analyzed by a non-parametrical test. The significance level was p<0.05.

[3] = system: patients receiving oxaliplatin; details: cited from earlier work

CNCC[C@H](Oc1cccc2ccccc12)c1cccs1 [Duloxetine]
percentage of variation of the paw withdrawal latency as compared to the vehicle-treated group ([1]; 100 mg/kg p.o. on testing day, week 2, 60 minutes after treatment, p<0.01): +33%
increase in the paw withdrawal latency as compared to the pre-drug baseline of the corresponding group ([1]; 100 mg/kg p.o. on testing day, week 3, 60 minutes after treatment, not significant): +50%
paw withdrawal latency (mean±s.e.m.) ([1]; 100 mg/kg p.o., week 3, 60 minutes after treatment, pre-drug baseline of the group 6.3±0.3 sec): 9.4 ± 0.7 s
percentage of variation of the paw withdrawal latency as compared to the vehicle-treated group ([2]; 100 mg/kg p.o., week 2, 60 minutes post-treatment): +42%
percentage of variation of the paw withdrawal latency as compared to the vehicle-treated group ([2]; 100 mg/kg p.o., week 3, 60 minutes post-treatment): +74%

CC(C)C[C@](C)(N)COc1ccc(-c2ccnc(C(F)F)c2)nc1C(F)F [Compound A, ((S)-1-((2′,6-bis (difluoromethyl)-[2,4′-bipyridin]-5-yl)oxy)-2,4-dimethylpentan-2-aminiumdihydrogen phosphate]
increase in the paw withdrawal latency as compared to the vehicle-treated group ([1]; daily oral administrations at 3 mg/kg): did not show a statistically significant increase
percentage of variation of the paw withdrawal latency as compared to the vehicle-treated group ([1]; daily p.o. 30 mg/kg then 10 mg/kg, week 2, baseline (before the day's dose), ns): +25%
paw withdrawal latency (mean±s.e.m.) ([1]; daily p.o. 30 mg/kg then 10 mg/kg, week 3, 60 minutes after the administration, vehicle 6.7±0.6 sec, p<0.05): 10.2 ± 0.8 s
percentage of variation of the paw withdrawal latency as compared to the vehicle-treated group ([1]; daily p.o. 30 mg/kg then 10 mg/kg, week 3, baseline (before the day's dose), p<0.05): +43%
increase in paw withdrawal latency as compared to the vehicle-treated group ([2]; 10 mg/kg p.o., 60 minutes post-treatment): did not show a statistically significant increase
percentage of variation of the paw withdrawal latency as compared to the vehicle-treated group ([2]; 30 mg/kg p.o., week 3, 60 minutes post-treatment): +35%

O=C1[O][Pt]2([NH][C@@H]3CCCC[C@H]3[NH]2)[O]C1=O [oxaliplatin]
prevalence of CIPN in patients receiving oxaliplatin ([3]; after one month of chemotherapy): approximately 68%
prevalence of CIPN in patients receiving oxaliplatin ([3]; at six months or more): 30%
prevalence of CIPN in patients receiving oxaliplatin ([3]; at three months): 60%
patients who took oxaliplatin reporting long-lasting neuropathic symptoms ([3]; chronic neuropathic pain): Approximately 60%
